# Source: the supplement of paper PMC10307832
# Legend:
# Assay in all cases: relative viability (nuclei count vs DMSO), 5 days (fraction); higher = more cells survive
# Idelalisib + Phenformin = compound: CC[C@H](Nc1ncnc2[nH]cnc12)c1nc2cccc(F)c2c(=O)n1-c1ccccc1 [Idelalisib] + N=C(N)NC(=N)NCCc1ccccc1 [Phenformin] (partner 250 µM)
# Procedure, shortened: (§1)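 Values are medians from duplicate plates. Each reflects relative viability, defined as the nuclei count of treated wells over that of vehicle wells. Lung cancer cell lines in 1536-well plates were pin-tool dosed one day after seeding with one drug alone or with a fixed anchor-drug dose plus five library-drug doses (not always all listed) in √10 steps, then fixed, stained and imaged at 4× after 5 days.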
# Idelalisib + Decitabine = compound: CC[C@H](Nc1ncnc2[nH]cnc12)c1nc2cccc(F)c2c(=O)n1-c1ccccc1 [Idelalisib] + Nc1ncn([C@H]2C[C@H](O)[C@@H](CO)O2)c(=O)n1 [Decitabine] (partner 2 µM)
# Procedure, shortened: as §1
# Idelalisib + Vorinostat = compound: CC[C@H](Nc1ncnc2[nH]cnc12)c1nc2cccc(F)c2c(=O)n1-c1ccccc1 [Idelalisib] + O=C(CCCCCCC(=O)Nc1ccccc1)NO [Vorinostat] (partner 1 µM)
# Procedure, shortened: as §1
# Pemetrexed + Olaparib = compound: Nc1nc2[nH]cc(CCc3ccc(C(=O)N[C@@H](CCC(=O)O)C(=O)O)cc3)c2c(=O)[nH]1 [Pemetrexed] + O=C(c1cc(Cc2n[nH]c(=O)c3ccccc23)ccc1F)N1CCN(C(=O)C2CC2)CC1 [Olaparib] (partner 8 µM)
# Procedure, shortened: as §1
cell line,measurement,setting,value
UMC-11,relative viability,Idelalisib + Phenformin; first compound 0.04 µM,0.323
same,relative viability,Idelalisib + Phenformin; first compound 0.1265 µM,0.327
same,relative viability,Idelalisib + Phenformin; first compound 0.4 µM,0.303
same,relative viability,Idelalisib + Phenformin; first compound 1.265 µM,0.321
same,relative viability,Idelalisib + Phenformin; first compound 4 µM,0.318
same,relative viability,Idelalisib + Decitabine; first compound 0.04 µM,0.698
same,relative viability,Idelalisib + Decitabine; first compound 0.1265 µM,0.595
same,relative viability,Idelalisib + Decitabine; first compound 0.4 µM,0.577
same,relative viability,Idelalisib + Decitabine; first compound 1.265 µM,0.609
same,relative viability,Idelalisib + Decitabine; first compound 4 µM,0.333
same,relative viability,Idelalisib + Vorinostat; first compound 0.04 µM,0.474
same,relative viability,Idelalisib + Vorinostat; first compound 0.1265 µM,0.392
same,relative viability,Idelalisib + Vorinostat; first compound 0.4 µM,0.363
same,relative viability,Idelalisib + Vorinostat; first compound 1.265 µM,0.437
same,relative viability,Idelalisib + Vorinostat; first compound 4 µM,0.358
same,relative viability,Pemetrexed + Olaparib; first compound 0.002 µM,0.361
same,relative viability,Pemetrexed + Olaparib; first compound 0.006325 µM,0.374
same,relative viability,Pemetrexed + Olaparib; first compound 0.02 µM,0.999
same,relative viability,Pemetrexed + Olaparib; first compound 0.06325 µM,0.441
same,relative viability,Pemetrexed + Olaparib; first compound 0.2 µM,0.358
